Common to all, as to conditions: mean±SEM; rat striatal and cortical tissues
Assay [1] concerns the target T1, serotonin transporter (5-HTT) (Rattus norvegicus, UniProt P31652).
T1 construct: from tissue
The assay is described as follows: Serotonin transporter binding affinity in rat tissue. How it is done: (§1) The binding affinities (mean±SEM) of compounds 1a, 1b, 1c, 1d, and 1e for the dopamine transporter (DAT), the serotonin transporter (5-HTT), and norepinephrine (NET) were evaluated in, respectively, rat striatal and cortical tissues according to methods described in Tamagnan et al., Advances in Neurology, Parkinson's Disease. 80: 91-103 (1999). The results are summarized in Table 1 below. β-CIT was run concurrently as a control.

The target in another assay is T2, norepinephrine (NET) (Rattus norvegicus, UniProt Q63380).
T2 construct: from tissue
T2 sequence (Q63380 1-617): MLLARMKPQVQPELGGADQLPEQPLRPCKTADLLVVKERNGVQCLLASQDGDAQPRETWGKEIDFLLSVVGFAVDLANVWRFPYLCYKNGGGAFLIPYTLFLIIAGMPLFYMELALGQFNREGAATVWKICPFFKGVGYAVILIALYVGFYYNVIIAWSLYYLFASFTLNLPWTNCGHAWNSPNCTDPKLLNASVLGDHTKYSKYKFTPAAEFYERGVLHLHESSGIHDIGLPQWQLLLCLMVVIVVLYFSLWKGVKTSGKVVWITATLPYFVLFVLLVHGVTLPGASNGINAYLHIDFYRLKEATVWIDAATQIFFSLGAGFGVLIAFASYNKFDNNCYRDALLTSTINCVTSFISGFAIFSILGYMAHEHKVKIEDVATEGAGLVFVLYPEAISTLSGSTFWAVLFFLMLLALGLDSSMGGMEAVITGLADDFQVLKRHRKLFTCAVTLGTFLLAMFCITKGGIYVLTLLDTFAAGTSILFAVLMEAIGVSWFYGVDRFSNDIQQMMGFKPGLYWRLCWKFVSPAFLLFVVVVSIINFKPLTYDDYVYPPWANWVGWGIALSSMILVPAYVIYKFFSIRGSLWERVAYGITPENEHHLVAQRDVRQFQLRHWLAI
Briefly: Norepinephrine transporter binding affinity in rat tissue. As to the method:
as §1

Assay [2] addresses T3, dopamine transporter (DAT) (Rattus norvegicus, UniProt P23977).
T3 construct: from tissue; host or cells: rat striatal tissue
The assay is described as follows: Dopamine transporter binding affinity in rat striatal tissue. How it is done:
as §1

T1 sequence (P31652 whole entry): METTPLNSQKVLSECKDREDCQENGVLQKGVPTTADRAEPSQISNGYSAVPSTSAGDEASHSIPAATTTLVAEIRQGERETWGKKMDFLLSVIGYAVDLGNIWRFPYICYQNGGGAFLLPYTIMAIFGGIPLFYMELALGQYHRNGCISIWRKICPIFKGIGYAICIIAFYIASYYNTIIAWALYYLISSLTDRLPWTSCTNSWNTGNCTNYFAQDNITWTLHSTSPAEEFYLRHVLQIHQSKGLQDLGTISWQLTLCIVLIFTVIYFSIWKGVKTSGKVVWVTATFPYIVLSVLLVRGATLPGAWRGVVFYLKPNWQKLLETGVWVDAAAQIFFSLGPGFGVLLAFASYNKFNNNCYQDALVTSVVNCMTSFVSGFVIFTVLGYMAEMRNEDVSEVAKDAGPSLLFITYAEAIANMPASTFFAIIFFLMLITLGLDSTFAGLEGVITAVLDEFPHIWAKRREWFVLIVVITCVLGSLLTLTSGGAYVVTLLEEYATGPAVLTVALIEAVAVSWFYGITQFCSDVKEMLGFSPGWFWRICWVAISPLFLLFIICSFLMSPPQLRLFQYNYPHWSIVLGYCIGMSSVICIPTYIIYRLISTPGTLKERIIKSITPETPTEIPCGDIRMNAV
T3 sequence (P23977 whole entry): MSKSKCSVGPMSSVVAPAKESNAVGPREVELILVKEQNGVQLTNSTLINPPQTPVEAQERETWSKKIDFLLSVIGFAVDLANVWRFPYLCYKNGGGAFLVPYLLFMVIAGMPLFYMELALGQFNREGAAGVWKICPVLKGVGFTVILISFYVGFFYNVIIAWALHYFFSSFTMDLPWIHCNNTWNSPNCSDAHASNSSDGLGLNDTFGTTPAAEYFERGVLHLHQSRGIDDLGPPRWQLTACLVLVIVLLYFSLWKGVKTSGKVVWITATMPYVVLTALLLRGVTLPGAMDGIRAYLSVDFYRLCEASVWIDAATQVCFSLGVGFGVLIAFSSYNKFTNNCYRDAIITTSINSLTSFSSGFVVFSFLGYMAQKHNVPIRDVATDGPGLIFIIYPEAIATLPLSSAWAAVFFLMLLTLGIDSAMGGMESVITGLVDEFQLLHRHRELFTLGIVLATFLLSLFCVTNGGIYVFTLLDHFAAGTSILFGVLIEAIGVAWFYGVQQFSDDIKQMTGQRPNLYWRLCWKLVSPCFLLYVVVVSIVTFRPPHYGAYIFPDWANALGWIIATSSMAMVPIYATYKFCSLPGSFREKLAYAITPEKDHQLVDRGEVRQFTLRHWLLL

Broadly, the Ki is a dissociation constant, usually derived from enzyme kinetics or from competition with a known ligand. With “3-(4-Chlorophenyl)-8-(3-tricarbonylrhenatocyclopentadienyloxy-carbonylpropyl)-8-aza-bicyclo[3.2.1 ]octane-2-carboxylic acid methyl ester [Compound 1b]”, the Ki in assay [1] amounted to 5.28 ± 0.21 nM; at norepinephrine (NET) it was 74 ± 8.2 nM; in assay [2], 4.18 ± 0.33 nM.
On the same counts, the results for “3β-(4-Chlorophenyl)-8-(4-cyclopentadienyltricarbonyl rhenium-butyl)-8-azabicyclo[3.2.1 ]octane-2β-carboxylic acid methyl ester [Compound 1d]” are 1.14 ± 0.16 nM, 199 ± 30 nM and 5.45 ± 0.64 nM.
Consider “8-Methyl-3β-[4 carbonyl -(cyclopentadienyltricarbonyl rhenium)-phenyl]-8-azabicyclo[3.2.1 ]octane-2β-carboxylic acid methyl ester [Compound 1c]”, for which the Ki in assay [1] was greater than 10000 nM; on norepinephrine (NET) it was greater than 30000 nM; in assay [2], greater than 10000 nM.
In the case of `COC(=O)C1C(c2ccc(I)cc2)CC2CCC1N2C` (stereo not drawn) [β-CIT, β-Carbomethoxy-3β-(4-iodophenyl) tropane, reference compound], the Ki worked out at 0.46 ± 0.06 nM in assay [1], 2.8 ± 0.4 nM on norepinephrine (NET) and 0.96 ± 0.15 nM in assay [2].
On the same counts, the results for “N-(4-oxo-4-tricarbonylcyclopentadienylrhenio)-2β-hydroxymethyl-3β-(4-chlorophenyl)-nortropane [Compound 1a]” are 13.3 ± 1 nM, 74 ± 8.2 nM and 13 ± 1.8 nM.

For the origin of these results see patent US20020111486A1, “Transition metal-cyclopentadienyl-tropane conjugates” (priority 1999, published 2002).
